Measured values from patent publication US11504371B2, “Quinazolines compound, preparation method therefor and application thereof” (Beijing Normal University, priority 2017, dated 2022).

What was measured:
Format in all cases: cell-based
[1] = test system: human lung cancer cell line (A549); assay: MTT assay, tumor cell proliferation inhibition, A549; conditions: for IC50: A549, MTT, 72 h, read-out: Tumor inhibition rate (IC50)
Protocol: (§1) Cell lines to be tested: human hepatoma cell line (HepG2), human lung cancer cell line (A549), human prostate cancer cell line (DU145), human breast cancer cell line (MCF-7), human neuroblastoma cell line (SH-SY5Y), human gastric mucosal cell line (Ges-1) and human embryonic lung fibroblast cell line (CCC-HPF-1) (the cells to be tested were purchased from the Cancer Hospital of Chinese Academy of Medical Sciences).
(§2) The cells in logarithmic growth phase were treated to prepare a single cell suspension, with the cell density adjusted, which was seeded in a 96-well cell culture plate. About 2×10^3 cells were contained in 100 μL per well, and cultured in a cell incubator at 37° C., 5% CO2, and saturated humidity for 24 h. The used medium was aspirated and abandoned, and then 100 μL of the target compound in different concentrations (0.1 μM-100 μM) were added for drug treatment. Five duplicate wells were prepared for each concentration. The background blank well, negative control well and positive control well were also prepared. All the wells were placed in a cell culture incubator at 37° C., 5% CO2, saturated humidity for another 72 h. Then, each well was added with 10 μL of MTT solution (5 mg/mL) and incubated for another 4 h. After that, each well was added with 100 μL of 10% SDS-0.1% NH4Cl (10% SDS purchased from Beijing Mengyimei Biotechnology Co., Ltd.) solution, and incubated at 37° C. for 10 h in the dark. Then, the absorbance OD was measured at 570 nm using a microplate reader at a reference wavelength of 650 nm. Cell proliferation inhibition was calculated according to the following formula: % inhibition=(ODcontrol−ODtreat)(ODcontrol−ODblank)×100. […] Each group was performed at least three times in parallel.

[2] = test system: human hepatoma cell line (HepG2); assay: MTT assay, tumor cell proliferation inhibition, HepG2; conditions: 72 h, read-out: Tumor inhibition rate (IC50)
Protocol: as §1, §2

[3] = test system: human breast cancer cell line (MCF-7); assay: MTT assay, tumor cell proliferation inhibition, MCF-7; conditions: for IC50: MCF-7, MTT, 72 h, read-out: Tumor inhibition rate (IC50)
Protocol: as §1, §2

[4] = test system: human prostate cancer cell line (DU145); assay: MTT assay, tumor cell proliferation inhibition, DU145; conditions: DU145, MTT, 72 h; read-out: Tumor inhibition rate (IC50)
Protocol: as §1, §2

[5] = test system: human neuroblastoma cell line (SH-SY5Y); assay: MTT assay, tumor cell proliferation inhibition, SH-SY5Y; conditions: for IC50: SH-SY5Y, 72 h, read-out: Tumor inhibition rate (IC50)
Protocol: as §1, §2

IC50 [1]	IC50 [2]	IC50 [3]	IC50 [4]	IC50 [5]	SMILES	inhibitory activity on A549 (in words) ([1]; MTT, summary of Table 1)	inhibitory effect on MCF-7 (in words) ([3]; MTT, summary of Table 1)	inhibitory effect on SH-SY5Y (in words) ([5]; summary of Table 1)
> 100 µM	48.1 µM	> 100 µM	> 100 µM	> 100 µM	O=[N+]([O-])c1ccc(COc2ccccc2Nc2ncnc3cc4c(cc23)OCCOCCOCCOCCO4)cc1 [Compound 30, N-(2-((4-nitrophenyl)methoxy)phenyl)-6,7-(benzo-15-crown-5)-4-quinazolinamine]			
> 100 µM	> 100 µM	> 100 µM	> 100 µM	> 100 µM	FC(F)(F)c1ccc(COc2ccc(Nc3ncnc4cc5c(cc34)OCCOCCOCCO5)cc2)cc1 [Compound 24, N-(4-((4-trifluoromethylphenyl)methoxy)phenyl)-6,7-(benzo-12-crown-4)-4-quinazolinamine]			
43.9 µM	55.5 µM	> 100 µM	> 100 µM	39.3 µM	Fc1ccc(COc2ccc(Nc3ncnc4cc5c(cc34)OCCOCCOCCOCCO5)cc2)cc1 [Compound 26, N-(4-((p-fluorophenyl)methoxy)phenyl)-6,7-(benzo-15-crown-5)-4-quinazolinamine]			
> 100 µM	19.4 µM	66.5 µM	> 100 µM	58.6 µM	O=[N+]([O-])c1ccc(COc2ccc(Nc3ncnc4cc5c(cc34)OCCOCCOCCO5)cc2)cc1 [Compound 20, N-(4-((4-nitrophenyl)methoxy)phenyl)-6,7-(benzo-12-crown-4)-4-quinazolinamine]			
> 100 µM	19 µM	> 100 µM	> 100 µM	20 µM	Fc1ccc(COc2cccc(Nc3ncnc4cc5c(cc34)OCCOCCOCCOCCO5)c2)cc1 [Compound 25, N-(3-((p-fluorophenyl)methoxy)phenyl)-6,7-(benzo-15-crown-5)-4-quinazolinamine]			
43.9 µM	55.5 µM	> 100 µM	> 100 µM	39.3 µM	c1ccc(COc2cccc(Nc3ncnc4cc5c(cc34)OCCOCCOCCOCCO5)c2)cc1 [Compound 28, N-(3-((phenyl)methoxy)phenyl)-6,7-(benzo-15-crown-5)-4-quinazolinamine]			
> 100 µM	> 100 µM	> 100 µM	> 100 µM	> 100 µM	O=[N+]([O-])c1ccc(COc2ccc(Nc3ncnc4cc5c(cc34)OCCOCCOCCOCCO5)cc2)cc1 [Compound 32, N-(4-((4-nitrophenyl)methoxy)phenyl)-6,7-(benzo-15-crown-5)-4-quinazolinamine]			
29.9 µM	60.8 µM	> 100 µM	> 100 µM	75.5 µM	O=[N+]([O-])c1ccc(COc2ccccc2Nc2ncnc3cc4c(cc23)OCCOCCOCCO4)cc1 [Compound 18, N-(2-((4-nitrophenyl)methoxy)phenyl)-6,7-(benzo-12-crown-4)-4-quinazolinamine]			
> 100 µM	> 100 µM	8.31 µM	> 100 µM	20.7 µM	Fc1ccc(COc2ccc(Nc3ncnc4cc5c(cc34)OCCOCCOCCO5)cc2)cc1 [Compound 17, N-(4-((p-fluorophenyl)methoxy)phenyl)-6,7-(benzo-12-crown-4)-4-quinazolinamine]		strong specific inhibitory effect	
30.7 µM	> 100 µM	28.5 µM	> 100 µM	> 100 µM	FC(F)(F)c1ccc(COc2ccccc2Nc2ncnc3cc4c(cc23)OCCOCCOCCOCCO4)cc1 [Compound 33, N-(2-((4-trifluoromethylphenyl)methoxy)phenyl)-6,7-(benzo-15-crown-5)-4-quinazolinamine]			
48.5 µM	29.2 µM	> 100 µM	> 100 µM	24 µM	c1ccc(COc2ccccc2Nc2ncnc3cc4c(cc23)OCCOCCOCCOCCO4)cc1 [Compound 27, N-(2-((phenyl)methoxy)phenyl)-6,7-(benzo-15-crown-5)-4-quinazolinamine]			
> 100 µM	> 100 µM	> 100 µM	> 100 µM	22.8 µM	c1ccc(COc2cccc(Nc3ncnc4cc5c(cc34)OCCOCCOCCO5)c2)cc1 [Compound 21, N-(3-((phenyl)methoxy)phenyl)-6,7-(benzo-12-crown-4)-4-quinazolinamine]			

Second part, the compound before the results:

SMILES	IC50 [1]	IC50 [2]	IC50 [3]	IC50 [4]	IC50 [5]	inhibitory activity on A549 (in words) ([1]; MTT, summary of Table 1)	inhibitory effect on MCF-7 (in words) ([3]; MTT, summary of Table 1)	inhibitory effect on SH-SY5Y (in words) ([5]; summary of Table 1)
c1ccc(OCc2ccncc2)c(Nc2ncnc3cc4c(cc23)OCCOCCO4)c1 [Compound 12, N-(2-((4-pyridyl)methoxy)phenyl)-6,7-(benzo-9-crown-3)-4-quinazolinamine]	> 100 µM	31.3 µM	> 100 µM	> 100 µM	> 100 µM			
FC(F)(F)c1ccc(COc2ccc(Nc3ncnc4cc5c(cc34)OCCOCCO5)cc2)cc1 [Compound 9, N-(4-((4-trifluoromethylphenyl)methoxy)phenyl)-6,7-(benzo-9-crown-3)-4-quinazolinamine]	> 100 µM	> 100 µM	> 100 µM	> 100 µM	30.4 µM			
O=[N+]([O-])c1ccc(COc2cccc(Nc3ncnc4cc5c(cc34)OCCOCCO5)c2)cc1 [Compound 2, N-(3-((4-nitrophenyl)methoxy)phenyl)-6,7-(benzo-9-crown-3)-4-quinazolinamine]	15.5 µM	65.3 µM	42.4 µM	> 100 µM	36.6 µM			
FC(F)(F)c1ccc(COc2ccccc2Nc2ncnc3cc4c(cc23)OCCOCCO4)cc1 [Compound 7, N-(2-((4-trifluoromethylphenyl)methoxy)phenyl)-6,7-(benzo-9-crown-3)-4-quinazolinamine]	> 100 µM	87.4 µM	> 100 µM	> 100 µM	> 100 µM			
Fc1ccc(COc2ccc(Nc3ncnc4cc5c(cc34)OCCOCCO5)cc2)cc1Cl [Compound 15, N-(4-((3-chloro,4-fluorophenyl)methoxy)phenyl)-6,7-(benzo-9-crown-3)-4-quinazolinamine]	> 100 µM	76.5 µM	> 100 µM	> 100 µM	> 100 µM			
Fc1ccc(COc2cccc(Nc3ncnc4cc5c(cc34)OCCOCCO5)c2)cc1Cl [Compound 14, N-(3-((3-chloro,4-fluorophenyl)methoxy)phenyl)-6,7-(benzo-9-crown-3)-4-quinazolinamine]	> 100 µM	43.6 µM	> 100 µM	90.1 µM	22.7 µM			
Fc1ccc(COc2ccccc2Nc2ncnc3cc4c(cc23)OCCOCCO4)cc1 [Compound 4, N-(2-((p-fluorophenyl)methoxy)phenyl)-6,7-(benzo-9-crown-3)-4-quinazolinamine]	14.4 µM	> 100 µM	> 100 µM	> 100 µM	84.5 µM			
Fc1ccc(COc2cccc(Nc3ncnc4cc5c(cc34)OCCOCCO5)c2)cc1 [Compound 5, N-(3-((p-fluorophenyl)methoxy)phenyl)-6,7-(benzo-9-crown-3)-4-quinazolinamine]	7.84 µM	> 100 µM	78.2 µM	> 100 µM	55.3 µM	strong specific inhibitory activity		
FC(F)(F)c1ccc(COc2cccc(Nc3ncnc4cc5c(cc34)OCCOCCO5)c2)cc1 [Compound 8, N-(3-((4-trifluoromethylphenyl)methoxy)phenyl)-6,7-(benzo-9-crown-3)-4-quinazolinamine]	> 100 µM	> 100 µM	> 100 µM	> 100 µM	19.3 µM			
Fc1ccc(COc2ccc(Nc3ncnc4cc5c(cc34)OCCOCCO5)cc2)cc1 [Compound 6, N-(4-((p-fluorophenyl)methoxy)phenyl)-6,7-(benzo-9-crown-3)-4-quinazolinamine]	43.3 µM	> 100 µM	65.2 µM	> 100 µM	82.7 µM			
N#Cc1ccc(COc2cccc(Nc3ncnc4cc5c(cc34)OCCOCCOCCO5)c2)cc1 [Compound 10, N-(3-((4-cyanophenyl)methoxy)phenyl)-6,7-(benzo-12-crown-4)-4-quinazolinamine]	> 100 µM	> 100 µM	> 100 µM	> 100 µM	> 100 µM			
N#Cc1ccc(COc2ccc(Nc3ncnc4cc5c(cc34)OCCOCCOCCO5)cc2)cc1 [Compound 11, N-(4-((4-cyanophenyl)methoxy)phenyl)-6,7-(benzo-12-crown-4)-4-quinazolinamine]	81.3 µM	67.4 µM	> 100 µM	> 100 µM	9.89 µM			strong specific inhibitory effect
